The text below walks through data of paper PMC11748363, “Antimicrobial and Antiproliferative Properties of 2‐Phenyl‐N‐(Pyridin‐2‐yl)acetamides” (Chemical Biology & Drug Design, 2025).

Data set [1] concerns Lichtheimia corymbifera CCM 8077. The data set can be described thus: Antifungal microdilution broth MIC, LC.
The subject of data set [2] is Aspergillus flavus CCM 8363. The data set can be described thus: Antifungal microdilution broth MIC, AFla. Background: Broth dilution looks for growth in wells or tubes with falling amounts of substance.
Data set [3] relates to Escherichia coli CCM 3954, ATCC 25922. The data set can be described thus: Antibacterial microdilution broth MIC, EC. It counts as cell-based.
Data set [4] deals with Staphylococcus aureus subsp. aureus CCM 4750, ATCC 43300 (MRSA). As to the kind of experiment: Antibacterial microdilution broth MIC, MRSA. It counts as cell-based. The settings on record: Staphylococcus aureus.
The subject of data set [5] is Candida krusei CCM 8271, ATCC 6258. The data set can be described thus: Antifungal microdilution broth MIC, CK. The settings on record: Pichia kudriavzevii.
In data set [6] the test system is Trichophyton interdigitale CCM 8377, ATCC 9533. The data set can be described thus: Antifungal microdilution broth MIC, TI. Particulars: Trichophyton interdigitale.
Data set [7] concerns Candida parapsilosis CCM 8260, ATCC 22019. The data set can be described thus: Antifungal microdilution broth MIC, CP. The settings on record: Lodderomyces parapsilosis.
Data set [8] relates to Aspergillus fumigatus ATCC 204305. The data set can be described thus: Antifungal microdilution broth MIC, AF.
For data set [9] the following is noted: buffer, 3 h, 1 µM, pH 7.4.
Procedure: HPLC-MS stability determination in PBS (pH 7.4)
Briefly, compounds were dissolved in DMSO to produce stock sample solutions.
NaOH. The concentration of tested compounds was set at 1 µM.
After that, 150 µL of supernatant was
transferred to the vial and analyzed by LC-MS.
3000 RS coupled with a Q Exactive Plus orbitrap mass spectrometer to obtain the areas (Thermo Fisher
Scientific, Bremen, Germany). Reverse-phase C18 column Kinetex EVO (Phenomenex, Torrance, CA,
USA) was used as a stationary phase, and purified water with 0.1% formic acid (mobile phase A) and
LC-MS grade acetonitrile with 0.1% formic acid (mobile phase B) were used as the mobile phases.
Gradient elution was used to determine purities and mass spectra. The method started with 5% B for
0.3 min, then the gradient switched to 100% B in the third min, remained at 100% B for 0.7 min and
then went back to 5% B with equilibration for 3.5 min. The total run time of the method was 7.5 min.
The column temperature was kept constant at 27 °C, the flow of the mobile phase was 0.5 mL/min,
and the injection volume was 1 µL.
Data set [10] deals with Staphylococcus epidermidis CCM 4418, ATCC 12228. The data set can be described thus: Antibacterial microdilution broth MIC, SE. It counts as cell-based.
The test system of a further data set is HepG2 cell line. The data set can be described thus: Cytotoxicity CellTiter 96, HepG2. The data set is classed as cell-based, human. The settings on record: 24 h incubation, ^c compound precipitated in the testing medium, ^d over the limit of tested concentrations.
Data set [11] concerns Acinetobacter baumannii DSM 30007, ATCC 19606. The data set can be described thus: Antibacterial microdilution broth MIC, ACI. It counts as cell-based.
The mark [12] stands for this setting: CCM8077, 24 h, read-out: MIC LC 24h.
[13] abbreviates: CCM8077, 48 h, read-out: MIC LC 48h.
The mark [14] stands for this setting: CCM8363, 24 h, read-out: MIC AFla 24h.
Setting [15] is: CCM8363, 48 h, read-out: MIC AFla 48h.
The mark [16] stands for this setting: ATCC204305, 24 h, read-out: MIC AF 24h.
Where [17] appears, read: ATCC204305, 48 h, read-out: MIC AF 48h.

SMILES strings stand for the structures. Values after ≈ are worked out from the molar mass of the structure shown. Where two headings read alike, the source gives them in different places.

By MIC is commonly meant the lowest concentration that inhibits growth of the organism. As usually defined, the IC50 is the concentration needed to halve the response being measured. A low value points to inhibition by little substance. On to `COc1ccc(CC(=O)Nc2cccc(Cl)n2)cc1` [Compound 12, 2-(4-methoxyphenyl)-N-(6-chloropyridin-2-yl)acetamide], for which the MIC in data set [1] (setting [12]) is above 500 µM; in [1] (setting [13]), above 500 µM; in data set [2] (setting [14]) it was above 500 µM; in [2] (setting [15]), above 500 µM; in data set [3] (24 h, read-out: MIC EC 24h), above 500 µM; in data set [3] (48 h, read-out: MIC EC 48h), above 500 µM. The MIC in data set [4] (24 h, read-out: MIC MRSA 24h) is 500 µM (≈ 138 µg/mL); in [4] (48 h, read-out: MIC MRSA 48h), above 500 µM; in [5] (24 h, read-out: MIC CK 24h) it was above 500 µM; in [5] (48 h, read-out: MIC CK 48h), above 500 µM; in data set [6] (72 h, read-out: MIC TI 72h) it was above 500 µM; in [6] (120 h, read-out: MIC TI 120h) it was above 500 µM. Also, the MIC in data set [7] (24 h, read-out: MIC CP 24h) is above 500 µM; in data set [7] (48 h, read-out: MIC CP 48h) it was above 500 µM; in data set [8] (setting [16]), above 500 µM; in [8] (setting [17]) it was above 500 µM; in data set [10] (24 h, read-out: MIC SE 24h), 500 µM (≈ 138 µg/mL); in [10] (48 h, read-out: MIC SE 48h), above 500 µM. Further, the MIC in data set [11] (24 h, read-out: MIC ACI 24h) is above 500 µM; in [11] (48 h, read-out: MIC ACI 48h) it was above 500 µM. The “concentration remaining (hydrolytic stability)” value in data set [9] is given as at least 90%. Besides, the IC50 in the data set on HepG2 cell line was 516 µM; in the data set on HepG2 cell line (Homo sapiens, HepG2, 24 h), above 500 µM.

Consider `O=C(Cc1ccccc1C(F)(F)F)Nc1cccc(Cl)n1` [Compound 24], for which the MIC in [1] (setting [12]) was above 500 µM; in data set [1] (setting [13]), above 500 µM; in data set [2] (setting [14]), above 500 µM; in data set [2] (setting [15]), above 500 µM; in data set [3] (24 h, read-out: MIC EC 24h) it was above 500 µM; in [3] (48 h, read-out: MIC EC 48h), above 500 µM. Further, the MIC is above 500 µM in data set [4] (24 h, read-out: MIC MRSA 24h); above 500 µM in data set [4] (48 h, read-out: MIC MRSA 48h); above 500 µM in [5] (24 h, read-out: MIC CK 24h); above 500 µM in data set [5] (48 h, read-out: MIC CK 48h); 500 µM (≈ 157 µg/mL) in data set [6] (72 h, read-out: MIC TI 72h); 500 µM (≈ 157 µg/mL) in data set [6] (120 h, read-out: MIC TI 120h). The MIC is above 500 µM in data set [7] (24 h, read-out: MIC CP 24h); above 500 µM in data set [7] (48 h, read-out: MIC CP 48h); above 500 µM in [8] (setting [16]); above 500 µM in data set [8] (setting [17]); above 500 µM in data set [10] (24 h, read-out: MIC SE 24h); above 500 µM in [10] (48 h, read-out: MIC SE 48h). Moreover, the MIC is above 500 µM in data set [11] (24 h, read-out: MIC ACI 24h) and above 500 µM in data set [11] (48 h, read-out: MIC ACI 48h). Moreover, the “concentration remaining (hydrolytic stability)” value in data set [9] is at least 90%. In the data set with HepG2 cell line (Homo sapiens, HepG2, 24 h), the IC50 was 64.6 µM.

In the case of `O=C(Cc1cccc(Cl)c1)Nc1ccc(Cl)cn1` [Compound 17, 2-(3-chlorophenyl)-N-(5-chloropyridin-2-yl)acetamide], the MIC in data set [1] (setting [12]) is above 500 µM; in data set [1] (setting [13]) it was above 500 µM; in data set [2] (setting [14]) it was above 500 µM; in data set [2] (setting [15]) it was above 500 µM; in [3] (24 h, read-out: MIC EC 24h), above 500 µM; in [3] (48 h, read-out: MIC EC 48h) it was above 500 µM. Also, the MIC in data set [4] (24 h, read-out: MIC MRSA 24h) is above 500 µM; in [4] (48 h, read-out: MIC MRSA 48h) it was above 500 µM; in [5] (24 h, read-out: MIC CK 24h) it was above 500 µM; in data set [5] (48 h, read-out: MIC CK 48h) it was above 500 µM; in data set [6] (72 h, read-out: MIC TI 72h), 500 µM (≈ 141 µg/mL); in data set [6] (120 h, read-out: MIC TI 120h) it was 500 µM (≈ 141 µg/mL). Also, the MIC is above 500 µM in data set [7] (24 h, read-out: MIC CP 24h); above 500 µM in data set [7] (48 h, read-out: MIC CP 48h); above 500 µM in [8] (setting [16]); above 500 µM in data set [8] (setting [17]); above 500 µM in data set [10] (24 h, read-out: MIC SE 24h); above 500 µM in data set [10] (48 h, read-out: MIC SE 48h). The MIC in data set [11] (24 h, read-out: MIC ACI 24h) is above 500 µM; in [11] (48 h, read-out: MIC ACI 48h), above 500 µM. Moreover, in the data set on HepG2 cell line (Homo sapiens, HepG2, 24 h), inhibition was half-maximal at 112 µM (IC50).

Regarding `O=C(Cc1cccc(C(F)(F)F)c1)Nc1ccc(Cl)cn1` [Compound 26], the MIC was above 500 µM in [1] (setting [12]); above 500 µM in data set [1] (setting [13]); above 500 µM in data set [2] (setting [14]); above 500 µM in data set [2] (setting [15]); above 500 µM in [3] (24 h, read-out: MIC EC 24h); above 500 µM in data set [3] (48 h, read-out: MIC EC 48h). Besides, the MIC is above 500 µM in data set [4] (24 h, read-out: MIC MRSA 24h); above 500 µM in data set [4] (48 h, read-out: MIC MRSA 48h); above 500 µM in [5] (24 h, read-out: MIC CK 24h); above 500 µM in data set [5] (48 h, read-out: MIC CK 48h); 500 µM (≈ 157 µg/mL) in [6] (72 h, read-out: MIC TI 72h); 500 µM (≈ 157 µg/mL) in data set [6] (120 h, read-out: MIC TI 120h). Moreover, the MIC in data set [7] (24 h, read-out: MIC CP 24h) is above 500 µM; in data set [7] (48 h, read-out: MIC CP 48h), above 500 µM; in data set [8] (setting [16]) it was above 500 µM; in [8] (setting [17]) it was above 500 µM; in [10] (24 h, read-out: MIC SE 24h) it was above 500 µM; in data set [10] (48 h, read-out: MIC SE 48h) it was above 500 µM. For the same compound, the MIC is above 500 µM in data set [11] (24 h, read-out: MIC ACI 24h) and above 500 µM in [11] (48 h, read-out: MIC ACI 48h). In the data set on HepG2 cell line (Homo sapiens, HepG2, 24 h), this compound gave an IC50 of 52.9 µM.
